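Protocol summary: plate cells (96-well), add compound at 5 concentrations, incubate 48 h, interpolate endpoints linearly. GI50 = concentration required for 50% inhibition of growth. TGI is the concentration that stops growth completely.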 Where only a bound is given, the exact number is not on record here.

In one test the test system is HCT-15 colon. Nature of the test: inhibition of tumour cell growth, NCI panel, 48 h.
`CCCNC(=O)C(C)C1CCC2(C)C=CC(=O)C(C)=C2C1O` (stereo not given) yielded a TGI greater than 100 µM.

For the compound `O=C(Nc1nc2ccc([N+](=O)[O-])cc2s1)C(=O)C(C(=O)c1ccccc1F)C1OC(=O)c2ccccc21` (stereo not given), the TGI is greater than 100 µM.

On to `Nc1ccn(C2C=C(CO)C(O)C2O)c(=O)c1` (stereo not given), for which the TGI was greater than 625 µM.

Take `COc1nc(=O)n(COC(CO)CN2C(=O)c3ccccc3C2=O)cc1Cc1cccc(OCc2ccccc2)c1` (stereo not given): the TGI was greater than 100 µM.

Another test concerns HOP-92 NSCLC. Nature of the test: inhibition of tumour cell growth, NCI panel, 48 h.
Regarding `N#C[C@H](OC1OC(COC2OC(CO)C(O)C(O)C2O)C(O)C(O)C1O)c1ccccc1` (stereo not given in full), the GI50 is greater than 250 µM and the TGI is greater than 250 µM.

Consider `CCN(CC)c1ccc2cc(C(=O)Nc3ccc4[nH]c(C(=O)N5C[C@@H](CCl)c6c5cc(OC(=O)Nc5ccccc5)c5[nH]cc(C)c65)cc4c3)oc2c1`, for which the TGI was greater than 1000 µM.

In turn, `Cn1c(=O)c2[nH]c(CCNC(=O)c3ccccc3)nc2n(C)c1=O` had a TGI greater than 100 µM.

`Cc1cc(S(=O)(=O)Nc2nc3ccccc3nc2-c2cccc([N+](=O)[O-])c2)c(S)cc1Cl` returned a TGI of 46.5 µM.

`O=c1ssc(=Nc2ccccc2)n1-c1ccccc1` showed a TGI of 98.5 µM.

In turn, `NCCSS(=O)(=O)CCN` came in with a TGI greater than 100 µM.

`CC(=O)Oc1cc2c(cc1OC(C)=O)OCC(c1ccccc1)C2` (stereo not given): the TGI was determined as 25.3 µM.

`O=C(O)c1cc2c(ncc3c(=O)n(-c4ccccc4)[nH]c32)s1` yielded a TGI greater than 100 µM.

In turn, `O=C(CCl)NNC1=Nc2ccc(Cl)cc2SC1` came in with a TGI of 3.02 µM.

Take `CCCc1c(-c2ccccc2)[nH]c2ccccc2c1=O`: the TGI is greater than 100 µM.

As to `Cc1ccc(C2OC(COCc3ccc(Cl)cc3)C(OCc3ccc(Cl)cc3)C2O)cc1` (stereo not given), the TGI came out at 15.6 µM.

Turning to `CO/N=C(/C)c1ccc(NC(=O)CSc2nnc(-c3ccncc3)n2-c2ccccc2)cc1`, the GI50 was 2.32 µM and the TGI came out at 6.07 µM.

In turn, `C[N+](C)(C)CCc1ccccc1` returned a TGI greater than 100 µM.

`COc1c(Br)cc2c(c1OC)C(Br)CCC(Br)(Br)C2=O` (stereo not given) gave a TGI of 12.5 µM.

`O=C1C=CC2(C=C1)O[C@H](Cc1ccccc1)[C@@H](Cc1ccccc1)O2` returned a TGI of 2.71 µM.

`CCCNC(=O)C(C)C1CCC2(C)C=CC(=O)C(C)=C2C1O` (stereo not given) came in with a TGI greater than 100 µM.

The compound `O=C(Nc1nc2ccc([N+](=O)[O-])cc2s1)C(=O)C(C(=O)c1ccccc1F)C1OC(=O)c2ccccc21` (stereo not given) came in with a TGI greater than 100 µM.

As for `Nc1ccn(C2C=C(CO)C(O)C2O)c(=O)c1` (stereo not given), the TGI is greater than 625 µM.

Consider `COc1nc(=O)n(COC(CO)CN2C(=O)c3ccccc3C2=O)cc1Cc1cccc(OCc2ccccc2)c1` (stereo not given), for which the TGI came out at 45.2 µM.

A further test relates to HT29 colon. As to the kind of experiment: inhibition of tumour cell growth, NCI panel, 48 h.
In turn, `N#C[C@H](OC1OC(COC2OC(CO)C(O)C(O)C2O)C(O)C(O)C1O)c1ccccc1` (stereo not given in full) displayed a TGI greater than 250 µM.

Compound `CCN(CC)c1ccc2cc(C(=O)Nc3ccc4[nH]c(C(=O)N5C[C@@H](CCl)c6c5cc(OC(=O)Nc5ccccc5)c5[nH]cc(C)c65)cc4c3)oc2c1` came in with a TGI greater than 1000 µM.

Take `Cn1c(=O)c2[nH]c(CCNC(=O)c3ccccc3)nc2n(C)c1=O`: the TGI was greater than 100 µM.

For `Cc1cc(S(=O)(=O)Nc2nc3ccccc3nc2-c2cccc([N+](=O)[O-])c2)c(S)cc1Cl`, the TGI amounted to 34.2 µM.

For `O=c1ssc(=Nc2ccccc2)n1-c1ccccc1`, the TGI is greater than 100 µM.

Turning to `NCCSS(=O)(=O)CCN`, the TGI was greater than 100 µM.

On to `CC(=O)Oc1cc2c(cc1OC(C)=O)OCC(c1ccccc1)C2` (stereo not given), for which the TGI came out at 98.3 µM.

Turning to `OCCNCCN1CCN(CCCN2c3ccccc3Sc3ccc(C(F)(F)F)cc32)CC1`, the TGI came to 28.3 µM.

In turn, `O=C(O)c1cc2c(ncc3c(=O)n(-c4ccccc4)[nH]c32)s1` returned a TGI greater than 100 µM.

`O=C(CCl)NNC1=Nc2ccc(Cl)cc2SC1` gave a TGI of 3.4 µM.

Compound `CCCc1c(-c2ccccc2)[nH]c2ccccc2c1=O` had a TGI of 50.3 µM.

As to `Cc1ccc(C2OC(COCc3ccc(Cl)cc3)C(OCc3ccc(Cl)cc3)C2O)cc1` (stereo not given), the TGI amounted to 26.2 µM.

In the case of `CO/N=C(/C)c1ccc(NC(=O)CSc2nnc(-c3ccncc3)n2-c2ccccc2)cc1`, the GI50 is greater than 100 µM and the TGI was greater than 100 µM.

The compound `C[N+](C)(C)CCc1ccccc1` registered a TGI greater than 100 µM.

`COc1c(Br)cc2c(c1OC)C(Br)CCC(Br)(Br)C2=O` (stereo not given) came in with a TGI of 3.71 µM.

Turning to `O=C1C=CC2(C=C1)O[C@H](Cc1ccccc1)[C@@H](Cc1ccccc1)O2`, the TGI was determined as 2.81 µM.

On to `CCCNC(=O)C(C)C1CCC2(C)C=CC(=O)C(C)=C2C1O` (stereo not given), for which the TGI was greater than 100 µM.

For `O=C(Nc1nc2ccc([N+](=O)[O-])cc2s1)C(=O)C(C(=O)c1ccccc1F)C1OC(=O)c2ccccc21` (stereo not given), the TGI is greater than 100 µM.

Compound `Nc1ccn(C2C=C(CO)C(O)C2O)c(=O)c1` (stereo not given) had a TGI greater than 625 µM.

Consider `COc1nc(=O)n(COC(CO)CN2C(=O)c3ccccc3C2=O)cc1Cc1cccc(OCc2ccccc2)c1` (stereo not given), for which the TGI is greater than 100 µM.

The test system of the next test is MOLT-4 leukemia. As to the kind of experiment: inhibition of tumour cell growth, NCI panel, 48 h.
In the case of `N#C[C@H](OC1OC(COC2OC(CO)C(O)C(O)C2O)C(O)C(O)C1O)c1ccccc1` (stereo not given in full), the GI50 is greater than 141 µM and the TGI is greater than 141 µM.

Take `CCN(CC)c1ccc2cc(C(=O)Nc3ccc4[nH]c(C(=O)N5C[C@@H](CCl)c6c5cc(OC(=O)Nc5ccccc5)c5[nH]cc(C)c65)cc4c3)oc2c1`: the GI50 was 294 µM and the TGI is greater than 1000 µM.

Compound `Cn1c(=O)c2[nH]c(CCNC(=O)c3ccccc3)nc2n(C)c1=O` registered a TGI greater than 100 µM.

Take `Cc1cc(S(=O)(=O)Nc2nc3ccccc3nc2-c2cccc([N+](=O)[O-])c2)c(S)cc1Cl`: the TGI is 73.5 µM.

Take `O=c1ssc(=Nc2ccccc2)n1-c1ccccc1`: the TGI is greater than 100 µM.

For `NCCSS(=O)(=O)CCN`, the TGI is greater than 100 µM.

For the compound `CC(=O)Oc1cc2c(cc1OC(C)=O)OCC(c1ccccc1)C2` (stereo not given), the TGI was found to be 26.1 µM.

Values taken from PubChem BioAssay (NCI).
